# Assay results taken from ChEMBL document CHEMBL1201862, “PubChem BioAssay data set” (2004).
# Active and inactive are the calls of the source. Rule as the data show it, for most assays here: actives have a measured EC50 and inactives only a lower limit.
# What was measured:
# [1] = NIH-3T3 fibroblast cytotoxicity, dose response, cytotoxicity control, cell-based, fluorescence, Alamar Blue, secondary assay (AID 2327); format: functional;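 also: NIH-3T3 mouse fibroblasts cultured with fluconazole at 8 µg/mL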
# [2] = C. albicans growth with fluconazole, confirmation, fluorescence, retest (AID 2467); format: functional, cell-based
# [3] = HEp-2 cell cytotoxicity, dose response, cytotoxicity control for RSV inhibitor project, HTS (AID 2410); format: functional; conditions: human respiratory syncytial virus
# [4] = Luminescence Cell-Based Dose Confirmation HTS to Identify Activators of 5'UTR Stem-Loop Driven Alpha-Synuclein mRNA Translation in H4 Neuroglioblastoma Cells. [Related pubchem assays: 1829 (Project Summary), 1814 (Primary HTS)]; format: functional
# [5] = Luminescence Cell-Based Dose Response HTS to Identify Activators of Luciferase Translation or Activity in H4 […] Cells. [Related pubchem assays: 1829 (Project Summary), 1814 (Primary HTS)]; format: functional
# H4 = assay: Luminescence Cell-Based Dose Response HTS to Identify Activators of 5'UTR Stem-Loop Driven Prion Protein mRNA Translation in H4 Neuroglioblastoma Cells. [Related pubchem assays: 1829 (Project Summary), 1814 (Primary HTS)]; format: functional; conditions: Homo sapiens
# [6] = biological target: T1, Replicative DNA helicase DnaB (Mycobacterium tuberculosis, UniProt P9WMR3); assay: DnaB intein splicing inhibitors, dose response, biochemical, cell-free fluorescence (AID 449749); format: functional
# T1 sequence (P9WMR3 whole entry): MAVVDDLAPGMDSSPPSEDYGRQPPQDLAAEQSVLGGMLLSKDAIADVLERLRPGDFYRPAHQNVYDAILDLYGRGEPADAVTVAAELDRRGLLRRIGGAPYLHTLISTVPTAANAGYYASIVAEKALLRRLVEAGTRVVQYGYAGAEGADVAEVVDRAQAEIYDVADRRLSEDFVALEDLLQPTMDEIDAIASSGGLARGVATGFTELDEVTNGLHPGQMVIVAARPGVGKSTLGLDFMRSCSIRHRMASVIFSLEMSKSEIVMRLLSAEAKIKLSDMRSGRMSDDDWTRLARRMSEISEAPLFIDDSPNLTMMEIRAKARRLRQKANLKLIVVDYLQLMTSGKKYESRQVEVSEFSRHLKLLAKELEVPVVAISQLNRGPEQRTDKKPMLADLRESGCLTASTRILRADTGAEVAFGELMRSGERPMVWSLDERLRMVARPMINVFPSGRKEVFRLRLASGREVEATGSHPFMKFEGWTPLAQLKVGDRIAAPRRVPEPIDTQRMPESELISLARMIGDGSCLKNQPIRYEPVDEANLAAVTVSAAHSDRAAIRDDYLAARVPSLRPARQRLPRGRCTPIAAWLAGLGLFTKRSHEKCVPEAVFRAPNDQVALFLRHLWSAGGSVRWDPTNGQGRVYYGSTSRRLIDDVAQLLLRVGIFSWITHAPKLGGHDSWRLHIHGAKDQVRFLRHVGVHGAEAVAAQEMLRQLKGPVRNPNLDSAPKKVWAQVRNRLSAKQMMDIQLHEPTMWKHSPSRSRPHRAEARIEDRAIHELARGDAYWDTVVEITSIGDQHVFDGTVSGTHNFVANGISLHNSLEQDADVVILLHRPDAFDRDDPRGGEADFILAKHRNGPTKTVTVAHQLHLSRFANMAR
# Protein RecA = biological target: T2, Protein RecA (Mycobacterium tuberculosis, UniProt P9WHJ3); assay: Fluorescence Cell-Free Homogeneous Dose Retest to Identify Inhibitors of RecA-Intein Splicing Activity. [Related pubchem assays (depositor defined):AID2097, AID2223, AID489010, AID492950]; format: functional
# T2 sequence (P9WHJ3 whole entry): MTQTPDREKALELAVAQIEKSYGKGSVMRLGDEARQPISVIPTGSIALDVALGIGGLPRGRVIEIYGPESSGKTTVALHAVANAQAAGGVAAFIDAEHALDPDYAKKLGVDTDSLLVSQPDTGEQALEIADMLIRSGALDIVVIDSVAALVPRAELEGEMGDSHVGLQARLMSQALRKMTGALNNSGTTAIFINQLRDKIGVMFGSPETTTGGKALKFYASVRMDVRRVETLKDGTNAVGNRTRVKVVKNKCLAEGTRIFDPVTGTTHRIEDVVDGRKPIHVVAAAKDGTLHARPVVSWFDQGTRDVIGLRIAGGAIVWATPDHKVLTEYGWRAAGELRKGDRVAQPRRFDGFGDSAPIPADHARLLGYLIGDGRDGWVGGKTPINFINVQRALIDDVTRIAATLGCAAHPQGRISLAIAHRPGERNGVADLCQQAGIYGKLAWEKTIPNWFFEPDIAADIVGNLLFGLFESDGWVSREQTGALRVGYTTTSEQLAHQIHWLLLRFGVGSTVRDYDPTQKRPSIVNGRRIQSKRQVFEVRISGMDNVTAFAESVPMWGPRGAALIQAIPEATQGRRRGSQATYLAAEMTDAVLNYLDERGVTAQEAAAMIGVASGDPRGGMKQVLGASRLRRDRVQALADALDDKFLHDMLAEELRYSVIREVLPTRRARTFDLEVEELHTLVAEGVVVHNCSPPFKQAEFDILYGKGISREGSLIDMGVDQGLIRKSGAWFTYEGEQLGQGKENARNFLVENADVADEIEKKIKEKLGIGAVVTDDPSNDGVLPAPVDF
# [7] = biological target: T3, Calpain-2 catalytic subunit (Sus scrofa, UniProt P43367); assay: pig calpain II inhibitor potency, dose response, biochemical, fluorogenic peptide substrate (AID 1420); format: functional
# T3 sequence (P43367 whole entry): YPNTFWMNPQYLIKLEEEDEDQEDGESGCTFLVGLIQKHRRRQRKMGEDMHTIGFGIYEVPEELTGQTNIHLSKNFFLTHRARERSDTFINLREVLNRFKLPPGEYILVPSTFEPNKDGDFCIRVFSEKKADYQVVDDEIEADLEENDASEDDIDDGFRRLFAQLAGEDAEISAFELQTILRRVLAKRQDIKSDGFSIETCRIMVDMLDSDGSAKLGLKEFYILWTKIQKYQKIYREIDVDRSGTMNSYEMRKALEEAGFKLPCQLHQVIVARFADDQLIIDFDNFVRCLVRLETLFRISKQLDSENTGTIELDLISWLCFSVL
# [8] = biological target: T4, Rac GTPase-activating protein 1 (Homo sapiens, UniProt Q9H0H5); assay: MgcRacGAP GTPase-activating activity inhibitors, confirmation, biochemical, ADP Hunter fluorescence, primary and confirmatory (AID 624330); format: functional
# T4 sequence (Q9H0H5 whole entry): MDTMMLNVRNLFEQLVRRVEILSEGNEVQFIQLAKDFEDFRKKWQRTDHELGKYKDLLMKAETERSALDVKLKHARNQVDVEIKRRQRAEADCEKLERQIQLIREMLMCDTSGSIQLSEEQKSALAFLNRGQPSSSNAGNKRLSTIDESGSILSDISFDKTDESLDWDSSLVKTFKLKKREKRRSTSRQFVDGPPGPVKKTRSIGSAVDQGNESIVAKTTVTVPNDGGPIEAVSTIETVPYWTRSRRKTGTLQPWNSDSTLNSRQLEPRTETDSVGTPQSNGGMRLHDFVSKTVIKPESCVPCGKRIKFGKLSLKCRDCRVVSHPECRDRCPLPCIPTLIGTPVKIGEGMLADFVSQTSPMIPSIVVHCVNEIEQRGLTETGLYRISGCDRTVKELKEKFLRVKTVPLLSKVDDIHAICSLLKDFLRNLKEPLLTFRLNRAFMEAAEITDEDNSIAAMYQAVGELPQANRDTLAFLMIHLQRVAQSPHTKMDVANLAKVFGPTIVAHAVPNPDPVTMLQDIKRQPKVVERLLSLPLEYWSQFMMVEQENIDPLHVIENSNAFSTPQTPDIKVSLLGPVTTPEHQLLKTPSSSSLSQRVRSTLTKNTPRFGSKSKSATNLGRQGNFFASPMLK
smiles,measurement,setting,value
COc1ccccc1NC(=O)Cn1cnc2c(cnn2-c2ccccc2)c1=O,EC50,[1],> 150 µM (inactive)
same,EC50,[2],> 38 µM (not active)
CCOc1ccc2nc(SCC(=O)N3CCN(C(=O)c4ccco4)CC3)sc2c1,CC50,[3],22.8 µM (active)
Cc1ccc(/C=C/C(=O)c2c(C)cc(C)nc2O)cc1,CC50,[3],17.7 µM (active)
O=C(Nc1cccnc1)C1CCN(S(=O)(=O)c2cccs2)CC1,EC50,[4],> 120 µM (not active)
same,EC50,[5],> 120 µM (not active)
same,EC50,H4,> 120 µM (not active)
Cc1ccc(N(CCCCN2C(=O)c3ccccc3C2=O)C(=O)c2cccs2)cc1,CC50,[3],38.9 µM (active)
Cc1nc2ccccc2c2c1C(=O)N(c1cccc(C(=O)O)c1)C2=O,AC50,[6],37 µM (active)
same,EC50,Protein RecA,17 µM (active)
O=C1CC2C(=O)NCCN2C(NC(=O)c2ccc(Cl)cc2)=N1 (stereo unspecified),IC50,[7],0.931 µM (not active)
N#Cc1cc2c(nc1SCc1nc3ccccc3[nH]1)CCC2,CC50,[3],38 µM (active)
CC(NC(=O)c1ccccc1)c1ccc(F)cc1 (stereo unspecified),IC50,[7],> 50 µM (not active)
CCOC(=O)N1CCN(CC(=O)Nc2sccc2C#N)CC1,IC50,[7],33.6 µM (not active)
CCCCC(=O)Nc1ccc(C(=O)c2ccccc2)cc1,IC50,[7],> 50 µM (not active)
Cc1ccc(C2CC(C(F)F)n3ncc(C(=O)Nc4cnn(Cc5ccccc5C)c4)c3N2)cc1 (stereo unspecified),CC50,[3],19.4 µM (active)
CCN(c1ccc(OCC(=O)OCC(=O)Nc2ccc(F)c(F)c2F)cc1)S(=O)(=O)c1ccccc1,IC50,[7],3.96 µM (not active)
CCCCCOc1ccc(CSc2n[nH]c(C)n2)cc1,EC50,[4],63 µM (active)
same,EC50,[5],14.5 µM (active)
same,EC50,H4,20.8 µM (active)
COc1ccccc1C1CC(c2ccco2)=NN1S(C)(=O)=O (stereo unspecified),EC50,[1],> 160 µM (inconclusive)
same,EC50,[2],> 38 µM (not active)
CC(C)c1n[nH]c2c1C1(CCN(Cc3ccccc3)CC1)C(C#N)=C(N)O2,AC50,[6],53.5 µM (active)
same,EC50,Protein RecA,1.16 µM (active)
O=C(CC1CCCCC1)NCc1ccccc1Cl,EC50,[4],> 120 µM (not active)
same,EC50,[5],14.1 µM (active)
same,EC50,H4,> 120 µM (not active)
O=C(Nc1ccc(F)c(Cl)c1)NC1CC1,EC50,[1],> 150 µM (inactive)
same,EC50,[2],2.1 µM (active)
COc1ccc(/C(=C/Nc2cccc(Br)c2)C(C)=O)cc1OC,IC50,[7],9 µM (not active)
C=CCn1c(CCCNC(=O)c2ccccc2OC)nc2ccccc21,IC50,[7],13.2 µM (not active)
Cc1ccc(Cl)cc1N1CCN(C(=O)CCCn2c(=O)c3cccn3c3cccnc32)CC1,CC50,[3],12.1 µM (active)
CCCCNc1nnc(SCC(=O)N2CCN(S(=O)(=O)c3ccc4ccccc4c3)CC2)s1,CC50,[3],> 50 µM (active)
CC(=O)c1cccc(NC(=S)NC(=O)c2ccc(C)cc2)c1,EC50,[1],> 160 µM (inactive)
same,EC50,[2],> 38 µM (not active)
COc1ccc(CN2C(=O)/C(=C\NNC(=O)c3cccnc3)c3ccccc3C2=O)cc1,EC50,[1],27.4 µM (active)
same,EC50,[2],1.32 µM (active)
same,IC50,[8],137 µM (active)
Cc1cccc(N2CCN(C(=O)c3ccc4c(c3)CCN4S(C)(=O)=O)CC2)c1C,CC50,[3],38.3 µM (active)
CCOC(=O)CN(C(=O)CSc1n[nH]c2c3cc(F)ccc3nc-2n1)c1ccccc1,IC50,[7],5.94 µM (not active)
CCc1n[nH]c2c1C1(CCN(C(=O)c3ccccc3)CC1)C(C#N)=C(N)O2,AC50,[6],24.6 µM (active)
same,EC50,Protein RecA,4.3 µM (active)
CC1=C(C(=O)OCc2ccccc2)C(c2cccs2)N2C(=O)CCSC2=N1 (stereo unspecified),IC50,[7],8.99 µM (not active)
Cc1cccc(C(=O)c2cnc3ccccc3c2-c2ccccc2)c1,AC50,[6],4.79 µM (active)
same,EC50,Protein RecA,22.8 µM (active)
O=C(NCc1ccccn1)C(=O)Nc1ccccc1,EC50,[4],46.3 µM (active)
same,EC50,[5],27.2 µM (active)
same,EC50,H4,13 µM (active)
CCOC(=O)C1CCN(Cc2cc(C(C)C)c(O)c(C(C)C)c2)CC1,EC50,Protein RecA,> 380 µM (inactive)
O=C1c2ccccc2S(=O)(=O)c2cc(N3CCc4ccccc4C3)ccc21,EC50,[4],14 µM (active)
same,EC50,[5],16.3 µM (active)
same,EC50,H4,15.6 µM (active)
N#C/C(=C(/O)CN1C(=O)c2ccccc2C1=O)c1nc2ccccc2[nH]1,IC50,[7],2.28 µM (not active)
COc1ccccc1N1CCN(/N=C/c2cc([N+](=O)[O-])ccc2Cl)CC1,CC50,[3],29 µM (active)
N#Cc1c(-c2ccc(Cl)cc2)cc(-c2ccccc2)nc1SCC(=O)O,EC50,[1],134 µM (active)
same,EC50,[2],1.57 µM (active)
